Experimental data from patent US7608636B2, “Medicines for treatment and prevention of neurogenic pain” (Hamilton Pharmaceuticals, Inc., priority 2000, dated 2009).

Key:
ddY male mice [1] = assay: von Frey test, administration into spinal subarachnoid space, partial sciatic nerve ligation model; format: in vivo, mouse; settings: for effect on escape reaction threshold (von Frey): control group subjected only to the dissection, administration into spinal subarachnoid space (10 nmol), compared to physiological saline; for effect on noxious response threshold (von Frey): neuropathic pain model (sciatic nerve bound), administration into spinal subarachnoid space, nefiracetam 1 and 10 nmol, morphine 10 nmol, oxiracetam 10 nmol
Method: 42 of ddY male mice having a body weight of 16 to 18 g were used. […] The mice were anesthetized with pentobarbital, and skin of right hind leg of each mouse was dissected so that sciatic nerve was observed. The half of sciatic nerve fibers was bound with a suture for 24 mice among 42 mice, and only the dissection was performed for the remaining 18 mice (a control group). After the dissection site was sutured, the animals were left for 7 days (Xun Ye et al, Jpn. J. Pharmacol. 2000, Malmberg A B and Basbaum A I, Pain 1998). […] The group of mice of which sciatic nerves were bound was divided into 4 groups, and the threshold was measured twice. The average of the values was used as a control value. Then, mice of each group were each administered with 5 μl (1 nmol) of nefiracetam, 5 μl (10 nmol) of nefiracetam, 5 μl (10 nmol) of morphine or 5 μl of physiological saline into spinal subarachnoid space. After the administration, the threshold was repeatedly measured for 60 minutes with intervals of 10 minutes. The group of mice that were subjected only to the dissection was divided into three groups, and a control value was measured in the same manner as described above. Then, mice of each group were each administered with 5 μl (10 nmol) of nefiracetam, 5 μl (10 nmol) of morphine or 5 μl of physiological saline into spinal subarachnoid space, and the threshold was measured in the same manner as described above.
In the same manner as in Example 2, 5 μl (10 nmol) of oxiracetam was administered and the threshold was measured.
In the von Frey test, the escape reactions caused by mechanical noxious stimulus, which was given for a time period of 60 minutes with intervals of 10 minutes, were evaluated as a threshold (g).

ddY male mice [2] = assay: Peripheral nociception test (bradykinin-induced nociceptive flexion reaction), partial sciatic nerve ligation model; format: in vivo, mouse
Method: 17 of ddY male mice having a body weight of 13 to 15 g were used. The mice were anesthetized with pentobarbital, and skin of right hind leg of each mouse was dissected so that sciatic nerve was observed. The half of sciatic nerve fibers was bound with a suture for 9 mice among 17 mice, and only the dissection was performed for the remaining 8 animals (a control group). After the dissection site was sutured, the animals were left for 7 days (Xun Ye et al, Jpn. J. Pharmacol. 2000, Malmberg A B and Basbaum A I, Pain 1998). […] The group of mice of which sciatic nerves were bound was divided into two groups, and mice of one group were each administered with 5 μl (10 nmol) of nefiracetam and mice of the other group were each administered with 5 μl of physiological saline into spinal subarachnoid space. After the administration, the mice were each subcutaneously administered at a right hind leg footpad with physiological saline at 10 minutes and 15 minutes, 2 μl (0.1 fmol) of bradykinin at 20 minutes and 25 minutes, 2 μl (1 fmol) of bradykinin at 30 minutes and 35 minutes, 2 μl (10 fmol) of bradykinin at 40 minutes and 45 minutes, and 2 μl (100 fmol) of bradykinin at 50 minutes and 55 minutes after the administration. […]
In the mouse peripheral nociception test, nociceptive flexion reactions caused by chemical pain stimulus using bradykinin were evaluated. […]

ddY male mice [3] = assay: von Frey test, oral administration of nefiracetam, partial sciatic nerve ligation model; format: in vivo, mouse; settings: oral administration 3, 10 or 30 mg/kg
Method: 36 of ddY male mice having a body weight of 16 to 18 g were used. In the von Frey test, the mice were placed on a mesh, and hind leg footpads of the mice were stimulated with a von Frey filament (digital type von Frey tester MODEL 1601 (IITC INC., U.S.A.)) every 15 minutes, and the threshold values observed at the beginning of an escape reaction were represented in a unit of gram. The mice were anesthetized with pentobarbital, and skin of right hind leg of each mouse was dissected so that sciatic nerve was observed. The half of sciatic nerve fibers was bound with a suture for 24 animals among the 36 animals, and only the dissection was performed for the remaining 12 animals (a sham group). After the dissection site was sutured, experiments were performed on the 7th day (Xun Ye et al, Jpn. J. Pharmacol. 2000, Malmberg A B and Basbaum A I, Pain 1998). […] The group of mice of which sciatic nerves were bound was divided into 4 groups, and the threshold was measured twice. […] Then, mice of each group were each orally administered with 3 mg/kg, 10 mg/kg or 30 mg/kg of nefiracetam or physiological saline (10 ml/kg), and the threshold was repeatedly measured for 90 minutes with intervals of 15 minutes. The mice of the control group (the sham group) that were subjected only to the dissection were divided into two groups, and a control value was measured in the same manner as described above. […]

ddY male mice [4] = assay: Hargreaves test, diabetic neuropathic pain (streptozotocin mice); format: in vivo, mouse; settings: mice with diabetes mellitus (streptozotocin); oral administration 3, 10 or 30 mg/kg
Method: 36 of ddY male mice having a body weight of 28 to 30 g were used. In the Hargreaves test, the mice were placed on a glass plate, and hind leg footpads of the mice were stimulated with radiant heat (combination type analgesia meter MODEL 336 (IITC INC., U.S.A.)) every 10 minutes. And the latent time until the beginning of an escape reaction was measured. The mice with diabetes mellitus were prepared by administering streptozotocin (200 mg/kg) dissolved in 0.1 N citrate buffer (pH 4.5) to caudal arteries, and the experiment was performed on the 7th day. […] 24 animals among the 36 animals were determined as mice with diabetes mellitus according to the method described above, and the remaining 12 mice were administered with 0.1 N citrate buffer at caudal arteries and used as a comparative control group (control group). The mice with diabetes mellitus were divided into 4 groups, and the threshold was measured twice. […] Then, mice of each group were each orally administered with 3 mg/kg, 10 mg/kg or 30 mg/kg of nefiracetam or physiological saline (10 ml/kg), and the latent time was repeatedly measured for 60 minutes with intervals of 10 minutes. The control group was divided into two groups, and a control value was measured as described above. […]

male mouse = settings: p.o.; cited from earlier work

Compound: CN1CC[C@]23c4c5ccc(O)c4O[C@H]2[C@@H](O)C=C[C@H]3[C@H]1C5 [morphine, reference compound]
- effect on escape reaction threshold (von Frey) (ddY male mice [1]): did not give significant effect
- effect on noxious response threshold (von Frey) (ddY male mice [1]): no significant effect

Compound: Cc1cccc(C)c1NC(=O)CN1CCCC1=O [nefiracetam, N-(2,6-dimethylphenyl)-2-(2-oxo-1-pyrrolidinyl)acetamide]
- effect on the reaction caused by bradykinin administered to footpad (ddY male mice [2]; control group subjected only to the dissection, without nervous disturbance, administered into spinal subarachnoid space, compared to physiological saline): not significant
- bradykinin sensitive response (analgesic effect) (ddY male mice [2]; neuropathic pain model (sciatic nerve bound), administration into spinal subarachnoid space, bradykinin 0.1 to 100 fmol): completely suppressed
- effect on escape reaction threshold (von Frey) (ddY male mice [1]): did not give significant effect
- effect on noxious response threshold (von Frey) (ddY male mice [1]): analgesic effect in a dose-dependent manner
- suppressing effect on neuropathic pain by oral administration (von Frey) (ddY male mice [3]): suppressing effect on neuropathic pain
- suppression effect on diabetic neuropathic pain (Hargreaves latent time) (ddY male mice [4]): suppression effect
- Acute toxicity (male mouse): 2,005 mg/kg

Compound: NC(=O)CN1CC(O)CC1=O (stereo not shown) [oxiracetam, 4-hydroxy-2-oxo-1-pyrrolidineacetamide]
- effect on noxious response threshold (von Frey) (ddY male mice [1]): analgesic effect substantially equivalent to that of nefiracetam
